Legend:
Format in all cases: in vivo
[1] = tested on: foxtail, giant (Setaria faberii); assay: Test A postemergence, giant foxtail; conditions: 0 to 100 scale
Source text: (§1) Seeds of plant species selected from barnyardgrass (Echinochloa crus-galli), kochia (Kochia scoparia), ragweed (common ragweed, Ambrosia elatior), ryegrass, Italian (Lolium multiflorum), foxtail, giant (Setaria faberii), foxtail, green (Setaria viridis), and pigweed (Amaranthus retroflexus) were planted into a blend of loam soil and sand and treated preemergence with a directed soil spray using test chemicals formulated in a non-phytotoxic solvent mixture which included a surfactant.
(§2) At the same time, plants selected from these weed species and also wheat (Triticum aestivum), corn (Zea mays), blackgrass (Alopecurus myosuroides), and galium (catchweed bedstraw, Galium aparine) were planted in pots containing the same blend of loam soil and sand and treated with postemergence applications of test chemicals formulated in the same manner. Plants ranged in height from 2 to 10 cm and were in the one- to two-leaf stage for the postemergence treatment. Treated plants and untreated controls were maintained in a greenhouse for approximately 10 d, after which time all treated plants were compared to untreated controls and visually evaluated for injury. Plant response ratings, summarized in Table A, are based on a 0 to 100 scale where 0 is no effect and 100 is complete control. A dash (-) response means no test result.

[2] = tested on: kochia (Kochia scoparia); assay: Test A preemergence, kochia; conditions: 0 to 100 scale
Source text: as §1, §2

[3] = tested on: barnyardgrass (Echinochloa crus-galli); assay: Test A preemergence, barnyardgrass; conditions: 0 to 100 scale
Source text: as §1, §2

[4] = tested on: ryegrass, Italian (Lolium multiflorum); assay: Test A postemergence, Italian ryegrass; conditions: 0 to 100 scale
Source text: as §1, §2

[5] = tested on: blackgrass (Alopecurus myosuroides); assay: Test A postemergence, blackgrass; conditions: 0 to 100 scale
Source text: as §1, §2

[6] = tested on: barnyardgrass (Echinochloa crus-galli); assay: Test B flooded paddy test, barnyardgrass; conditions: Flood, 250 g ai/ha, applied to paddy water, 2-leaf stage, visual evaluation after 13 to 15 d
Method: (§3) Plant species in the flooded paddy test selected from rice (Oryza sativa), sedge, umbrella (small-flower umbrella sedge, Cyperus difformis), ducksalad (Heteranthera limosa), and barnyardgrass (Echinochloa crus-galli) were grown to the 2-leaf stage for testing. At the time of treatment, test pots were flooded to 3 cm above the soil surface, treated by application of test compounds directly to the paddy water, and then maintained at that water depth for the duration of the test. Treated plants and controls were maintained in a greenhouse for 13 to 15 d, after which time all species were compared to controls and visually evaluated. Plant response ratings, summarized in Table B, are based on a scale of 0 to 100 where 0 is no effect and 100 is complete control. A dash (-) response means no test result.

[7] = tested on: wheat (Triticum aestivum); assay: Test A postemergence, wheat; conditions: 0 to 100 scale
Source text: as §1, §2

[8] = tested on: barnyardgrass (Echinochloa crus-galli); assay: Test A postemergence, barnyardgrass; conditions: 0 to 100 scale
Source text: as §1, §2

[9] = tested on: ryegrass, Italian (Lolium multiflorum); assay: Test A preemergence, Italian ryegrass; conditions: 0 to 100 scale
Source text: as §1, §2

[10] = tested on: pigweed (Amaranthus retroflexus); assay: Test A postemergence, pigweed; conditions: 0 to 100 scale
Source text: as §1, §2

[11] = tested on: corn (Zea mays); assay: Test A postemergence, corn; conditions: 0 to 100 scale
Source text: as §1, §2

[12] = tested on: foxtail, giant (Setaria faberii); assay: Test A preemergence, giant foxtail; conditions: 0 to 100 scale
Source text: as §1, §2

[13] = tested on: pigweed (Amaranthus retroflexus); assay: Test A preemergence, pigweed; conditions: 0 to 100 scale
Source text: as §1, §2

[14] = tested on: sedge, umbrella (small-flower umbrella sedge, Cyperus difformis); assay: Test B flooded paddy test, umbrella sedge; conditions: Flood, 250 g ai/ha, applied to paddy water, 2-leaf stage, visual evaluation after 13 to 15 d
Method: as §3

[15] = tested on: rice (Oryza sativa); assay: Test B flooded paddy test, rice; conditions: Flood, 250 g ai/ha, applied to paddy water, 2-leaf stage, visual evaluation after 13 to 15 d
Method: as §3

[16] = tested on: galium (catchweed bedstraw, Galium aparine); assay: Test A postemergence, galium; conditions: 0 to 100 scale
Source text: as §1, §2

[17] = tested on: ragweed (common ragweed, Ambrosia elatior); assay: Test A postemergence, ragweed; conditions: 0 to 100 scale
Source text: as §1, §2

[18] = tested on: ducksalad (Heteranthera limosa); assay: Test B flooded paddy test, ducksalad; conditions: Flood, 250 g ai/ha, applied to paddy water, 2-leaf stage, visual evaluation after 13 to 15 d
Method: as §3

[19] = tested on: kochia (Kochia scoparia); assay: Test A postemergence, kochia; conditions: 0 to 100 scale
Source text: as §1, §2

Compound | Plant response rating, Foxtail, Giant ([1]; 125 g ai/ha) | Plant response rating, Foxtail, Giant ([1]; 500 g ai/ha) | Plant response rating, Kochia ([2]; 125 g ai/ha) | Plant response rating, Kochia ([2]; 500 g ai/ha) | Plant response rating, Barnyardgrass ([3]; 125 g ai/ha) | Plant response rating, Barnyardgrass ([3]; 500 g ai/ha) | Plant response rating, Ryegrass, Italian ([4]; 125 g ai/ha) | Plant response rating, Ryegrass, Italian ([4]; 500 g ai/ha) | Plant response rating, Blackgrass ([5]; 125 g ai/ha) | Plant response rating, Blackgrass ([5]; 500 g ai/ha) | Plant response rating, Barnyardgrass (0 to 100 scale, 0 is no effect, 100 is complete control) [6] | Plant response rating, Wheat ([7]; 125 g ai/ha) | Plant response rating, Wheat ([7]; 500 g ai/ha) | Plant response rating, Barnyardgrass ([8]; 125 g ai/ha) | Plant response rating, Barnyardgrass ([8]; 500 g ai/ha) | Plant response rating, Ryegrass, Italian ([9]; 125 g ai/ha) | Plant response rating, Ryegrass, Italian ([9]; 500 g ai/ha) | Plant response rating, Pigweed ([10]; 125 g ai/ha) | Plant response rating, Pigweed ([10]; 500 g ai/ha) | Plant response rating, Corn ([11]; 125 g ai/ha) | also measured
C[C@H](Nc1ncc(C(F)(F)F)c(N)n1)C1Cc2ccccc2C1 [Compound 12] | 0 | 0 | 0 | 0 | 0 | 0 | 0 | 0 | 0 | 0 | 0 | 0 | 0 | 0 | 0 | 0 | 0 | 30 | 40 | 0 | Plant response rating, Corn ([11]; 500 g ai/ha): 0; Plant response rating, Foxtail, Giant ([12]; 125 g ai/ha): 0; Plant response rating, Foxtail, Giant ([12]; 500 g ai/ha): 0; Plant response rating, Pigweed ([13]; 125 g ai/ha): 0; Plant response rating, Pigweed ([13]; 500 g ai/ha): 50; Plant response rating, Sedge, Umbrella (0 to 100 scale, 0 is no effect, 100 is complete control) [14]: 0; Plant response rating, Rice (0 to 100 scale, 0 is no effect, 100 is complete control) [15]: 0; Plant response rating, Galium ([16]; 125 g ai/ha): 0; Plant response rating, Galium ([16]; 500 g ai/ha): 0; Plant response rating, Ragweed ([17]; 125 g ai/ha): 0; Plant response rating, Ragweed ([17]; 500 g ai/ha): 0; Plant response rating, Ducksalad (0 to 100 scale, 0 is no effect, 100 is complete control) [18]: 0; Plant response rating, Kochia ([19]; 125 g ai/ha): 0; Plant response rating, Kochia ([19]; 500 g ai/ha): 30
Cc1cc2oc([C@@H](C)Nc3ncc(C(F)(F)F)c(N)n3)cc2cc1F [Compound 31] | 10 | 70 | 40 | 90 | 70 | 100 | 30 | 10 | 20 | 10 | 0 | 0 | 0 | 20 | 80 | 20 | 80 | 90 | 100 | 0 | Plant response rating, Corn ([11]; 500 g ai/ha): 30; Plant response rating, Foxtail, Giant ([12]; 125 g ai/ha): 90; Plant response rating, Foxtail, Giant ([12]; 500 g ai/ha): 100; Plant response rating, Pigweed ([13]; 125 g ai/ha): 90; Plant response rating, Pigweed ([13]; 500 g ai/ha): 100; Plant response rating, Sedge, Umbrella (0 to 100 scale, 0 is no effect, 100 is complete control) [14]: 0; Plant response rating, Rice (0 to 100 scale, 0 is no effect, 100 is complete control) [15]: 0; Plant response rating, Galium ([16]; 125 g ai/ha): 70; Plant response rating, Galium ([16]; 500 g ai/ha): 100; Plant response rating, Ragweed ([17]; 125 g ai/ha): 60; Plant response rating, Ragweed ([17]; 500 g ai/ha): 90; Plant response rating, Ducksalad (0 to 100 scale, 0 is no effect, 100 is complete control) [18]: 0; Plant response rating, Kochia ([19]; 125 g ai/ha): 60; Plant response rating, Kochia ([19]; 500 g ai/ha): 90

Source: patent US20220119354A1, “DIAMINO-SUBSTITUTED PYRIDINES AND PYRIMIDINES AS HERBICIDES” (FMC Corporation, priority 2019, published 2022)
